Assay results published in ChEMBL document CHEMBL5365481, “Design, Synthesis, and Activity Evaluation of Novel Dual-Target Inhibitors with Antifungal and Immunoregulatory Properties” (J Med Chem, 2023).
Active and inactive are the calls of the source. The calls are words filed in the database; no cut-off is given here.

Assays:
Candida albicans [1] = assay: In vivo antifungal activity against Candida albicans ATCC SC5314 infected in BALB/c mouse assessed as increase in body weight at 10 ug, ip for 14 days in presence of Biphenyl isopropyl ester; type: functional, organism-based; conditions: dose 10.0 µg, time 14.0 day
Candida albicans [2] = assay: In vivo antifungal activity against Candida albicans ATCC SC5314 infected in BALB/c mouse assessed as reversal of cell morphology to normal state at 10 ug, ip for 14 days in presence of Biphenyl isopropyl ester by GMS staining based microscopy; type: functional, organism-based; conditions: dose 10.0 µg, time 14.0 day
Candida albicans [3] = assay: In vivo antifungal activity against Candida albicans ATCC SC5314 infected in BALB/c mouse assessed as decrease in necrotic cell debris in tissue gap at 10 ug, ip for 14 days in presence of Biphenyl isopropyl ester by GMS staining based microscopy; type: functional, organism-based; conditions: dose 10.0 µg, time 14.0 day
[4] = Toxicity in BALB/c mouse infected with Candida albicans ATCC SC5314 assessed as morphological changes in heart at 10 ug, ip for 14 days in presence of Biphenyl isopropyl ester by H and E staining based microscopy; type: organism-based; conditions: in vivo, 336 h, dose 10 µg, time 14 day
[5] = Toxicity in BALB/c mouse infected with Candida albicans ATCC SC5314 assessed as morphological changes in kidney at 10 ug, ip for 14 days in presence of Biphenyl isopropyl ester by H and E staining based microscopy; type: organism-based; conditions: in vivo, 336 h, dose 10 µg, time 14 day
[6] = Toxicity in BALB/c mouse infected with Candida albicans ATCC SC5314 assessed as plasma AST level at 10 ug, ip for 14 days in presence of Biphenyl isopropyl ester; type: organism-based; conditions: in vivo, 336 h, dose 10 µg, time 14 day
[7] = Toxicity in BALB/c mouse infected with Candida albicans ATCC SC5314 assessed as plasma ALT level at 10 ug, ip for 14 days in presence of Biphenyl isopropyl ester; type: organism-based; conditions: in vivo, 336 h, dose 10 µg, time 14 day
[8] = Toxicity in BALB/c mouse infected with Candida albicans ATCC SC5314 assessed as plasma BUN level at 10 ug, ip for 14 days in presence of Biphenyl isopropyl ester; type: organism-based; conditions: in vivo, 336 h, dose 10 µg, time 14 day
Candida albicans [9] = assay: In vivo antifungal activity against Candida albicans ATCC SC5314 infected in BALB/c mouse assessed as decrease in COX2 expression level at 10 ug, ip for 14 days in presence of Biphenyl isopropyl ester by Western blot analysis; type: functional, organism-based; conditions: dose 10.0 µg, time 14.0 day
Candida albicans [10] = assay: In vivo antifungal activity against Candida albicans ATCC SC5314 infected in BALB/c mouse assessed as decrease in NLRP3 expression level at 10 ug, ip for 14 days in presence of Biphenyl isopropyl ester by Western blot analysis; type: functional, organism-based; conditions: dose 10.0 µg, time 14.0 day
Candida albicans [11] = assay: In vivo antifungal activity against Candida albicans ATCC SC5314 infected in BALB/c mouse assessed as decrease in COX2 expression level at 10 ug, ip for 14 days in presence of Biphenyl isopropyl ester by immunohistochemical analysis; type: functional, organism-based; conditions: dose 10.0 µg, time 14.0 day
Candida albicans [12] = assay: In vivo antifungal activity against Candida albicans ATCC SC5314 infected in BALB/c mouse assessed as decrease in IL-2 expression level at 10 ug, ip for 14 days in presence of Biphenyl isopropyl ester by immunohistochemical analysis; type: functional, organism-based; conditions: dose 10.0 µg, time 14.0 day
Candida albicans [13] = assay: In vivo antifungal activity against Candida albicans ATCC SC5314 infected in BALB/c mouse assessed as decrease in PD-L1 expression level at 10 ug, ip for 14 days in presence of Biphenyl isopropyl ester by Western blot analysis; type: functional, organism-based; conditions: dose 10.0 µg, time 14.0 day
Candida albicans [14] = assay: In vivo antifungal activity against Candida albicans ATCC SC5314 infected in BALB/c mouse assessed as fold increase in CD3+ expression level in T cells at 10 ug, ip for 14 days in presence of Biphenyl isopropyl ester by immunohistochemical analysis; type: functional, T-cell; conditions: dose 10 µg, time 14 day
Cell membrane [15] = assay: Induction of cell membrane integrity disruption in Candida albicans ATCC SC5314 assessed as decrease in cell wall thickness at 1 microM/ml incubated for 48 to 72 hrs by TEM analysis; type: subcellular; conditions: time 48-72 hrs
Cell membrane [16] = assay: Induction of cell membrane integrity disruption in Candida albicans ATCC SC5314 assessed as decrease in cell membrane thickness at 1 microM/ml incubated for 48 to 72 hrs by TEM analysis; type: subcellular; conditions: time 48-72 hrs
Cell membrane [17] = assay: Induction of cell membrane integrity disruption in Candida albicans ATCC SC5314 assessed as edema vacuoles at 1 microM/ml incubated for 48 to 72 hrs by TEM analysis; type: subcellular; conditions: time 48-72 hrs
Cell membrane [18] = assay: Induction of cell membrane integrity disruption in Candida albicans ATCC SC5314 assessed as disappearance of nuclei at 1 microM/ml incubated for 48 to 72 hrs by TEM analysis; type: subcellular; conditions: time 48-72 hrs
Cell membrane [19] = assay: Induction of cell membrane integrity disruption in Candida albicans ATCC SC5314 assessed as accumulation of low density particulate matter at 1 microM/ml incubated for 48 to 72 hrs by TEM analysis; type: subcellular; conditions: time 48-72 hrs
Cell membrane [20] = assay: Induction of cell membrane integrity disruption in Candida albicans ATCC SC5314 assessed as cell destruction at 1 microM/ml incubated for 96 hrs by TEM analysis; type: subcellular
Cell membrane [21] = assay: Induction of cell membrane integrity disruption in Candida albicans ATCC SC5314 assessed as seepage of cell contents into external region at 1 microM/ml incubated for 96 hrs by TEM analysis; type: subcellular

SMILES: OC(Cn1cncn1)(Cn1cncn1)c1ccc(F)cc1F [FLUCONAZOLE]
- Activity (Candida albicans [1]): Active
- Activity (Candida albicans [2]): Active
- Activity (Candida albicans [3]): Active
- Activity [4]: Non-Toxic
- Activity [5]: Non-Toxic
- Activity [6]: 71.9 IU/L
- Activity [7]: 37.2 IU/L
- Activity [8]: 22.8 nmol/L
- Activity (Candida albicans [9]): Active
- Activity (Candida albicans [10]): Active
- Activity (Candida albicans [11]): Active
- Activity (Candida albicans [12]): Active
- Activity (Candida albicans [13]): Active
- fold change (FC) (Candida albicans [14]): 1.46

SMILES: CC(=O)c1ccc(C(=O)N2CCC(NC(=O)c3nc(-n4cncn4)c4ccccc4n3)CC2)cc1
- Activity (Cell membrane [15]): Active
- Activity (Cell membrane [16]): Active
- Activity (Cell membrane [17]): Active
- Activity (Cell membrane [18]): Active
- Activity (Cell membrane [19]): Active
- Activity (Cell membrane [20]): Active
- Activity (Cell membrane [21]): Active
